According to publication PMC4114195, “Identification of a cyclic-di-GMP-modulating response regulator that impacts biofilm formation in a model sulfate reducing bacterium” (Frontiers in Microbiology, 2014):

Key:
Type in all cases: biochemical
DVU0408 [1] = molecular target: T1, DVU0408 (Nitratidesulfovibrio vulgaris, UniProt Q72F10); assay: HPLC, c-di-GMP hydrolysis with added GTP; settings: 100 μM GTP, 100 μM c-di-GMP, 2 mM MnCl2; proposed allosteric at inactive GGDEF domain
T1 construct: gene DVU_0408; full length (gene 2148 bp, about 715 residues), GGDEF-EAL response regulator; E. coli
T1 sequence (Q72F10 1-715): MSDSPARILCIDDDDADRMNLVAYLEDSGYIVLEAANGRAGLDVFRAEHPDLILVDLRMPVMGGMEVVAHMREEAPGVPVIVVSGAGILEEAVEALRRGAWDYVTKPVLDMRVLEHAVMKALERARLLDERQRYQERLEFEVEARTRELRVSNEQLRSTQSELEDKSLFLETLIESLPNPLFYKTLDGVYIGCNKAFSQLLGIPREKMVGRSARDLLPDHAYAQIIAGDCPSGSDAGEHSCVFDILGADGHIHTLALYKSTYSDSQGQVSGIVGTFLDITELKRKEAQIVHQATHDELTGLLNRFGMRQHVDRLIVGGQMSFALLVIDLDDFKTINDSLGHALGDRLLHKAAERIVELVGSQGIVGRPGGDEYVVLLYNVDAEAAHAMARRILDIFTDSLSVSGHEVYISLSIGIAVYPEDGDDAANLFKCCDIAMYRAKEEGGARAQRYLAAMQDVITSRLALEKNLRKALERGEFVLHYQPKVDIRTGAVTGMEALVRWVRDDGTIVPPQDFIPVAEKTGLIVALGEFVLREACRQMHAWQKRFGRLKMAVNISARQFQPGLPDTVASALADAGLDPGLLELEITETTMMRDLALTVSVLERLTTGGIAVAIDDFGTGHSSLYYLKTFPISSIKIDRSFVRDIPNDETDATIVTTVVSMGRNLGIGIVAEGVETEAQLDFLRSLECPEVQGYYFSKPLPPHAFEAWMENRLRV

DVU0330 HD domain = molecular target: T2, DVU0330 HD domain (Nitratidesulfovibrio vulgaris, UniProt Q72F84); assay: absorbance at […] nm, phosphodiesterase assay; settings: 5 mM bis-pNPP, 1 or 10 mM MnCl2, pH 8.0
T2 construct: gene DVU_0330; isolated HD (HDOD, no GYP motif) domain 230-412; N-terminal 8xHis-Strep II-MBP tag cut by TEV; E. coli
T2 sequence (Q72F84 230-412): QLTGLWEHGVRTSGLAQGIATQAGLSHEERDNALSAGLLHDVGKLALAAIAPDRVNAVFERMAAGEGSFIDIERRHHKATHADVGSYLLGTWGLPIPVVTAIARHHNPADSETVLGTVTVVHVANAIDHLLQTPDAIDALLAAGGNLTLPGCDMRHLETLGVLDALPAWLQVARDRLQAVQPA

DVU1181 HD-GYP domain = molecular target: T3, DVU1181 HD-GYP domain (Nitratidesulfovibrio vulgaris, UniProt Q72CV2); assay: absorbance at […] nm, phosphodiesterase assay; settings: 5 mM bis-pNPP, 1 or 10 mM MnCl2, pH 8.0
T3 construct: gene DVU_1181; isolated HD-GYP domain 176-356; N-terminal 8xHis-Strep II-MBP tag cut by TEV; E. coli
T3 sequence (Q72CV2 176-356): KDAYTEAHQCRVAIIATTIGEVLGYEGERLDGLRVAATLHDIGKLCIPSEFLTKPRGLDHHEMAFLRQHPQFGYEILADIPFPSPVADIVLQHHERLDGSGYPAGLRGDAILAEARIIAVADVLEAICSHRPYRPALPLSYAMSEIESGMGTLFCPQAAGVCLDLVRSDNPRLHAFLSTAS

DVU2933 HD-GYP domain = molecular target: T4, DVU2933 HD-GYP domain (Nitratidesulfovibrio vulgaris, UniProt Q727C2); assay: HILIC-TOF MS, c-di-GMP hydrolysis; settings: 100 μM c-di-GMP, 10 mM MnCl2, pH 8.0, room temperature, 24 h
T4 construct: gene DVU_2933; isolated HD-GYP domain 282-458; N-terminal 6xHis tag cut by TEV; E. coli
T4 sequence (Q727C2 282-458): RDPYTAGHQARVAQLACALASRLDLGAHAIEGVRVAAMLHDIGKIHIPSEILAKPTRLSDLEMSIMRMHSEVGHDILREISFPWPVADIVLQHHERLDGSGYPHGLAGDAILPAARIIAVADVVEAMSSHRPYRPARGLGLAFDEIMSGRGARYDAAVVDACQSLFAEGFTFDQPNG

DVU0722 HD-GYP domain = molecular target: T5, DVU0722 HD-GYP domain (Nitratidesulfovibrio vulgaris, UniProt Q72E57); assay: HILIC-TOF MS, c-di-GMP hydrolysis; settings: 100 μM c-di-GMP, 10 mM MnCl2, pH 8.0, room temperature, 24 h
T5 construct: gene DVU_0722; isolated HD-GYP domain 336-518; N-terminal 8xHis-Strep II-MBP tag cut by TEV; E. coli
T5 sequence (Q72E57 336-518): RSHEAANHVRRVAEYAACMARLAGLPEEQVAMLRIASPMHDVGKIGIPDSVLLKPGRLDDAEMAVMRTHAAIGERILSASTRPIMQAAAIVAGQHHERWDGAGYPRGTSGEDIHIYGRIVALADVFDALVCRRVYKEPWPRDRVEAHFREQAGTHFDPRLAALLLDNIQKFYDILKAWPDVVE

DVU0408 [2] = molecular target: T1, DVU0408; assay: HPLC, phosphodiesterase assay, pGpG formed; settings: 100 μM c-di-GMP, 2 mM MnCl2
DVUA0086 HD-GYP domain = molecular target: T6, DVUA0086 HD-GYP domain (Nitratidesulfovibrio vulgaris, UniProt Q72WK3); assay: HILIC-TOF MS, c-di-GMP hydrolysis; settings: 100 μM c-di-GMP, 10 mM MnCl2, pH 8.0, room temperature, 24 h
T6 construct: isolated HD-GYP domain 164-363; N-terminal 6xHis tag cut by TEV; E. coli; gene on native plasmid pDV1
T6 sequence (Q72WK3 164-363): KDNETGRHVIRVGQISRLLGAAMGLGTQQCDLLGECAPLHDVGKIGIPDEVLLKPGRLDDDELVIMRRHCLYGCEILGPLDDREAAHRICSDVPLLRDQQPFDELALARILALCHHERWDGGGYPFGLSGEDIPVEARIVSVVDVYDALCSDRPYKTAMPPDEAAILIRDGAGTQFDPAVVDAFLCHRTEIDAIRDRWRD

Nc1nc2c(ncn2[C@@H]2O[C@H](COP(=O)(O)OP(=O)(O)OP(=O)(O)O)[C@@H](O)[C@H]2O)c(=O)[nH]1 [GTP]
HPLC, c-di-GMP hydrolysis with added GTP (DVU0408 [1]): There was an increase in the pGpG peak upon addition of GTP.

O=[N+]([O-])c1ccc(OP(=O)(O)Oc2ccc([N+](=O)[O-])cc2)cc1 [bis-pNPP]
absorbance at 410 nm, phosphodiesterase assay (DVU0330 HD domain): DVU0330 that lacks the GYP motif showed very low activity
absorbance at 410 nm, phosphodiesterase assay (DVU1181 HD-GYP domain): DVU0722 and DVU1181 showed slower activity

Nc1nc2c(ncn2[C@@H]2O[C@@H]3COP(=O)(O)O[C@H]4[C@@H](O)[C@H](n5cnc6c(=O)[nH]c(N)nc65)O[C@@H]4COP(=O)(O)O[C@H]3[C@H]2O)c(=O)[nH]1 [c-di-GMP]
HILIC-TOF MS, c-di-GMP hydrolysis (DVU2933 HD-GYP domain): DVU2933 protein had lower activity, but again pGpG was the main product formed.
HILIC-TOF MS, c-di-GMP hydrolysis (DVU0722 HD-GYP domain): DVU0722 protein also hydrolyzed most of the c-di-GMP to pGpG.
HPLC, phosphodiesterase assay, pGpG formed (DVU0408 [2]): it did have PDE activity against c-di-GMP
HILIC-TOF MS, c-di-GMP hydrolysis (DVUA0086 HD-GYP domain): DVUA0086 protein had maximum activity and completely hydrolyzed c-di-GMP
